Laboratory results as given in the NIST ThermoML archive (doi:10.1016/j.tca.2008.05.002).

Assay: molar heat capacity at saturation pressure
Conditions: Crystal 4, Small (less than 1 g) adiabatic calorimetry

CCCCn1cc[n+](C)c1.O=[N+]([O-])[O-] [1-butyl-3-methylimidazolium nitrate]
Conditions	molar heat capacity [J/K/mol]
117.1 K	154.68
118.14 K	155.53
119.11 K	156.13
120.15 K	157.05
121.12 K	157.68
122.17 K	158.58
123.13 K	159.23
124.19 K	160.07
125.15 K	160.68
126.21 K	161.54
127.17 K	162.15
128.23 K	163.05
129.2 K	163.65
130.26 K	164.54
131.23 K	165.12
132.3 K	166.01
133.26 K	166.61
134.34 K	167.5
135.3 K	168.06
136.37 K	168.99
137.33 K	169.59
138.41 K	170.52
139.37 K	171.1
140.46 K	172.05
141.42 K	172.55
142.5 K	173.51
143.46 K	174.12
144.54 K	175.06
145.5 K	175.61
146.58 K	176.59
147.55 K	177.16
148.63 K	178.1
149.59 K	178.69
150.67 K	179.61
151.64 K	180.2
152.72 K	181.14
153.69 K	181.74
154.76 K	182.69
155.74 K	183.23
156.81 K	184.24
157.78 K	184.76
158.86 K	185.75
159.83 K	186.31
160.91 K	187.26
161.87 K	187.84
162.96 K	188.75
163.91 K	189.21
165 K	190.24
165.95 K	190.7
167.05 K	191.85
168 K	192.27
169.09 K	193.36
170.04 K	193.84
171.13 K	194.94
172.08 K	195.39
173.17 K	196.55
174.12 K	196.86
175.21 K	198.14
176.16 K	198.59
177.25 K	199.73
178.2 K	200.16
179.28 K	201.42
180.24 K	201.83
181.31 K	203.03
182.28 K	203.44
183.34 K	204.64
184.31 K	205.05
185.37 K	206.25
186.34 K	206.66
187.39 K	207.86
188.36 K	208.47
189.42 K	209.67
190.39 K	210.08
191.44 K	211.28
192.41 K	211.89
193.45 K	212.89
194.43 K	213.5
195.47 K	214.71
196.44 K	215.31
197.48 K	216.31
198.45 K	216.92
199.49 K	218.13
200.46 K	218.73
201.55 K	219.94
202.53 K	220.54
203.67 K	221.75
204.65 K	222.35
205.78 K	223.56
206.76 K	224.16
207.89 K	225.37
208.87 K	225.97
210 K	227.38
210.98 K	227.78
212.11 K	229.19
213.09 K	229.6
214.21 K	231
215.19 K	231.61
216.3 K	232.82
217.29 K	233.62
218.4 K	234.63
219.38 K	235.63
220.49 K	236.44
221.47 K	237.44
222.58 K	238.25
